Reference: patent publication US20250346616A1 (DIZAL (JIANGSU) PHARMACEUTICAL CO., LTD., priority 2022, published 2025)

Legend:
[1] = biological target: Recombinant ROCK1 (Homo sapiens (Human), UniProt Q13464); assay: Lance Ultra Kinase Assay, ROCK1 inhibition; assay type: biochemical; details: ATP at Km, 30 min pre-incubation, 1 h reaction
Experimental: (§1) The inhibition potency of compounds against these enzymes was assessed using Lance Ultra Kinase Assay. In brief, recombinant kinases were pre-incubated in the presence or absence of compound at room temperature for 30 minutes. The reaction was initiated by the addition of the ATP (Km) and substrate peptide which could be phosphorylated by kinases in the reaction. After 1 h incubation, the reaction was stopped by the addition of the detection reagent mix containing EDTA. The fluorescence was measured at 615 nm and 665 nm, respectively with excitation wavelength at 320 nm. The calculated signal ratio of 665 nm/615 nm is proportional to the kinase activity.

[2] = biological target: Recombinant ROCK2 (Homo sapiens (Human), UniProt O75116); assay: Lance Ultra Kinase Assay, ROCK2 inhibition; assay type: biochemical; details: ATP at Km, 30 min pre-incubation, 1 h reaction
Recombinant ROCK2, sequence (O75116 whole entry): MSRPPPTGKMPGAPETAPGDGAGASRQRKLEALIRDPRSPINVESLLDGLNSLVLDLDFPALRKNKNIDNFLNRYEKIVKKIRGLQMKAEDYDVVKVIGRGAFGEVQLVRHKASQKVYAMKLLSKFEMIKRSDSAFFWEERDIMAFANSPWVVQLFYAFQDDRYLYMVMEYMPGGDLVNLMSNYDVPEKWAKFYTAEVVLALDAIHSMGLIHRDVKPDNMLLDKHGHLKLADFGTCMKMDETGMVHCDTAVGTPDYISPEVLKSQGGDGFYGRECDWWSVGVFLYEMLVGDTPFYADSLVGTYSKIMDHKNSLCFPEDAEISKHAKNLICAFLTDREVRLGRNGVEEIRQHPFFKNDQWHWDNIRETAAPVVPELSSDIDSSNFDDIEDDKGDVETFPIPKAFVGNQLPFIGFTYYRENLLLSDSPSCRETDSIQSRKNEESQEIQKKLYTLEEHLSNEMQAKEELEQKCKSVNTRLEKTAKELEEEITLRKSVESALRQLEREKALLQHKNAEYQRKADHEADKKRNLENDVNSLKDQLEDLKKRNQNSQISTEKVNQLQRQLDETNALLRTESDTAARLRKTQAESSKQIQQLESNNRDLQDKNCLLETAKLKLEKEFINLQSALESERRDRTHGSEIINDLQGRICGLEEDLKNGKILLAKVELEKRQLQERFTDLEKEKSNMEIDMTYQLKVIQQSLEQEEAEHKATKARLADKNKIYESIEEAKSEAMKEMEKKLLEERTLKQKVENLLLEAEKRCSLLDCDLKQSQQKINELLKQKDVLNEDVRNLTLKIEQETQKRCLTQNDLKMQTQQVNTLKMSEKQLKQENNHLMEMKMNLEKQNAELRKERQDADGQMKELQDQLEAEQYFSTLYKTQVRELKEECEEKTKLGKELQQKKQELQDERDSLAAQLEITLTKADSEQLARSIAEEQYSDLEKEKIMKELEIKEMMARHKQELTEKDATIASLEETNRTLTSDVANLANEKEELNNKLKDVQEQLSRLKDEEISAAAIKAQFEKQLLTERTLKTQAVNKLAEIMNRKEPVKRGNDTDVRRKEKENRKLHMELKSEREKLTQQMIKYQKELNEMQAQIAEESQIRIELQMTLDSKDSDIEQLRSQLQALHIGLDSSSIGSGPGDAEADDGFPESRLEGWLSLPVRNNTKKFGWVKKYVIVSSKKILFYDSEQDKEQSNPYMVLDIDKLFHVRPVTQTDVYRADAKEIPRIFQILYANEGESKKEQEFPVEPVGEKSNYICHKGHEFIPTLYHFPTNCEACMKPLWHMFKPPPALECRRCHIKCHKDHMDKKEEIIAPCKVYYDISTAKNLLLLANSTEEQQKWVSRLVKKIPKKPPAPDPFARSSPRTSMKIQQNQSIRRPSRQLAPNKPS
Experimental: as §1

Recombinant ROCK1, sequence (Q13464 whole entry): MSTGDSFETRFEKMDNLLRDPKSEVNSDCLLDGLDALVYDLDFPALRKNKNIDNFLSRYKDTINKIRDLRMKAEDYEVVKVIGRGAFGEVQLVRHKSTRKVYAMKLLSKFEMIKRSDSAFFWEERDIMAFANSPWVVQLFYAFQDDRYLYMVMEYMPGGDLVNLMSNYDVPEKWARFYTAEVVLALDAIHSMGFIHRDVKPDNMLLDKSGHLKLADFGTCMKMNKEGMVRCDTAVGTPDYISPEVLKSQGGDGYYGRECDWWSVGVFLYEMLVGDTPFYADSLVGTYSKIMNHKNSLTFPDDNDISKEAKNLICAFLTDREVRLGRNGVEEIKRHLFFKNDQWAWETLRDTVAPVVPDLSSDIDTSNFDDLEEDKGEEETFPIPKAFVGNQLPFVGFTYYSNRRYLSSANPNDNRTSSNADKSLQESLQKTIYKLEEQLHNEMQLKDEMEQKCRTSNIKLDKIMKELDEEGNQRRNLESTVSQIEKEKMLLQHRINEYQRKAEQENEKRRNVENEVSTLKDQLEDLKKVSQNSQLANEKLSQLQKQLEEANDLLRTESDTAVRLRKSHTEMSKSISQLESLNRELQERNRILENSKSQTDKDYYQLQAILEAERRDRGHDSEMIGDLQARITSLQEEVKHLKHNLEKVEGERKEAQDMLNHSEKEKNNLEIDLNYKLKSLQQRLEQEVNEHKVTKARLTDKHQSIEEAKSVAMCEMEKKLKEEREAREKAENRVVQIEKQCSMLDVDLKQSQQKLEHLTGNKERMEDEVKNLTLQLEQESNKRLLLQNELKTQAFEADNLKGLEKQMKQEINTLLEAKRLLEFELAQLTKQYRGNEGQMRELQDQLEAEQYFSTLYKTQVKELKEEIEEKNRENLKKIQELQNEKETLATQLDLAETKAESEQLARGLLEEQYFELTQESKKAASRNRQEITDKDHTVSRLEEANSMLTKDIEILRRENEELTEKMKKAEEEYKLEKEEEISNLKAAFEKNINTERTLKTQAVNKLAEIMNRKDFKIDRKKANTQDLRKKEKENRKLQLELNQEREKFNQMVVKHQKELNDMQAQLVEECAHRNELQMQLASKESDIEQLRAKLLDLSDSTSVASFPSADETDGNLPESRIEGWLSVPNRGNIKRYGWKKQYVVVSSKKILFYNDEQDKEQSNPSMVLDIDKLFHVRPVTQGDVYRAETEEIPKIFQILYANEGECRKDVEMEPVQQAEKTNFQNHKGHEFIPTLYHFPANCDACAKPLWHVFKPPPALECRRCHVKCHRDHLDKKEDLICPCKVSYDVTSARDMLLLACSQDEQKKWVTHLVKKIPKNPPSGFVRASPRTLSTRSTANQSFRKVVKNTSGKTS

| IC50 [1] [nM] | IC50 [2] [nM] | Structure (SMILES) |
| --- | --- | --- |
| 0.81 | 0.52 | NCC(C(=O)Nc1cccc2c(-c3cn[nH]c3)c[nH]c12)c1ccc(F)cc1 (racemic) [Example 85, 3-amino-2-(4-fluorophenyl)-N-[3-(1H-pyrazol-4-yl)-1H-indol-7-yl]propanamide] |
| 2.7 | 0.98 | N#Cc1ccc(C(CN)C(=O)Nc2cccc3c(-c4cn[nH]c4)c[nH]c23)cc1 (racemic) [Example 86, 3-amino-2-(4-cyanophenyl)-N-[3-(1H-pyrazol-4-yl)-1H-indol-7-yl]propanamide] |
| 0.29 | 0.18 | Cc1cccc(C(CN)C(=O)Nc2cccc3c(-c4cn[nH]c4)c[nH]c23)c1 (racemic) [Example 87, N-(3-(1H-pyrazol-4-yl)-1H-indol-7-yl)-3-amino-2-(m-tolyl)propanamide] |
| 17 | 9.3 | COCCOc1ccc(C(CN)C(=O)Nc2cccc3c(-c4cn[nH]c4)c[nH]c23)cc1 (racemic) [Example 88, 3-amino-2-[4-(2-methoxyethoxy)phenyl]-N-[3-(1H-pyrazol-4-yl)-1H-indol-7-yl]propanamide] |
| 1.2 | 0.66 | NCC(C(=O)Nc1cccc2c(-c3cn[nH]c3)c[nH]c12)c1cccc(Cl)c1 (racemic) [Example 89, 3-amino-2-(3-chlorophenyl)-N-[3-(1H-pyrazol-4-yl)-1H-indol-7-yl]propanamide] |
| 5.3 | 0.91 | COc1ccc(C(CN)C(=O)Nc2cccc3c(-c4cn[nH]c4)c[nH]c23)cc1 (racemic) [Example 90, 3-amino-2-(4-methoxyphenyl)-N-[3-(1H-pyrazol-4-yl)-1H-indol-7-yl]propanamide] |
| 16 | 6 | CC(=O)Nc1ccc(C(CN)C(=O)Nc2cccc3c(-c4cnn(C(=O)OC(C)(C)C)c4)c[nH]c23)cc1 (racemic) [Example 92, tert-butyl 4-{7-[3-amino-2-(4-acetamidophenyl)propanamido]-1H-indol-3-yl}pyrazole-1-carboxylate] |
| 20 | 13 | Cc1cccc(C(CN)C(=O)Nc2cccc3c(-c4cn[nH]c4)c[nH]c23)n1 (racemic) [Example 93, 3-amino-2-(6-methylpyridin-2-yl)-N-[3-(1H-pyrazol-4-yl)-1H-indol-7-yl]propanamide] |
| 6.5 | 3 | NCC(C(=O)Nc1cccc2c(-c3cn[nH]c3)c[nH]c12)C1CCOC1 (racemic) [Example 94, N-(3-(1H-pyrazol-4-yl)-1H-indol-7-yl)-3-amino-2-(tetrahydrofuran-3-yl)propanamide] |
| 3.7 | 2.3 | NCC(C(=O)Nc1cccc2c(-c3cn[nH]c3)c[nH]c12)C1CCCC1 (racemic) [Example 95, 3-amino-2-cyclopentyl-N-[3-(1H-pyrazol-4-yl)-1H-indol-7-yl]propanamide] |
| 7.3 | 4 | NCC(C(=O)Nc1cccc2c(-c3cn[nH]c3)c[nH]c12)C1CCOC1 (racemic) [Example 96, N-(3-(1H-pyrazol-4-yl)-1H-indol-7-yl)-3-amino-2-(tetrahydrofuran-3-yl)propanamide] |
| 122 | 28 | CP(C)(=O)c1ccc(C(CN)C(=O)Nc2cccc3c(-c4cn[nH]c4)c[nH]c23)cc1 (racemic) [Example 97, 3-amino-2-[4-(dimethylphosphoryl)phenyl]-N-[3-(1H-pyrazol-4-yl)-1H-Indol-7-yl]propanamide] |
| 9.2 | 4.3 | NCC(C(=O)Nc1cccc2c(-c3cn[nH]c3)c[nH]c12)c1ccccn1 (racemic) [Example 98, 3-amino-N-[3-(1H-pyrazol-4-yl)-1H-indol-7-yl]-2-(pyridin-2-yl)propanamide] |
| 3.2 | 1.1 | CC(=O)NCc1ccc(C(CN)C(=O)Nc2cccc3c(-c4cn[nH]c4)c[nH]c23)cc1 (racemic) [Example 99, N-(3-(1H-pyrazol-4-yl)-1H-indol-7-yl)-2-(4-(acetamidomethyl)phenyl)-3-aminopropanamide] |
| 1.6 | 0.81 | COc1cc(C(CN)C(=O)Nc2cccc3c(-c4cn[nH]c4)c[nH]c23)ccc1CO (racemic) [Example 101, 3-amino-2-[4-(hydroxymethyl)-3-methoxyphenyl]-N-[3-(1H-pyrazol-4-yl)-1H-indol-7-yl]propanamide] |
| 1.3 | 0.56 | COc1cncc(C(CN)C(=O)Nc2cccc3c(-c4cn[nH]c4)c[nH]c23)c1 (racemic) [Example 102, 3-amino-2-(5-methoxypyridin-3-yl)-N-[3-(1H-pyrazol-4-yl)-1H-indol-7-yl]propanamide] |
| 1.4 | 0.53 | Cn1ccc(C(CN)C(=O)Nc2cccc3c(-c4cn[nH]c4)c[nH]c23)cc1=O (racemic) [Example 103, 3-amino-2-(1-methyl-2-oxopyridin-4-yl)-N-[3-(1H-pyrazol-4-yl)-1H-indol-7-yl]propanamide] |
| 2 | 0.9 | COc1ccc(C(N)C(=O)Nc2cccc3c(-c4cn[nH]c4)c[nH]c23)cc1 (racemic) [Example 104, 2-amino-2-(4-methoxyphenyl)-N-[3-(1H-pyrazol-4-yl)-1H-indol-7-yl]acetamide] |

| IC50 [1] [nM] | IC50 [2] [nM] | Structure (SMILES) |
| --- | --- | --- |
| 6 | 3.7 | CC(N)(C(=O)Nc1cccc2c(-c3cn[nH]c3)c[nH]c12)c1ccccc1 (racemic) [Example 107, 2-amino-2-phenyl-N-[3-(1H-pyrazol-4-yl)-1H-indol-7-yl]propanamide] |
| 11 | 8.9 | NC(C(=O)Nc1cccc2c(-c3cn[nH]c3)c[nH]c12)C1CCCCC1 (racemic) [Example 122, N-(3-(1H-pyrazol-4-yl)-1H-indol-7-yl)-2-amino-2-cyclohexylacetamide] |
| 1.7 | 1.7 | CN1CCN(C(C(=O)Nc2cccc3c(-c4cn[nH]c4)c[nH]c23)C2CCCCC2)CC1 (racemic) [Example 129, 2-cyclohexyl-2-(4-methylpiperazin-1-yl)-N-[3-(1H-pyrazol-4-yl)-1H-indol-7-yl]acetamide] |
| 44 | 31 | O=C(Nc1cccc2c(-c3cn[nH]c3)c[nH]c12)C1CNCc2ccccc21 (racemic) [Example 133, N-(3-(1H-pyrazol-4-yl)-1H-indol-7-yl)-1,2,3,4-tetrahydroisoquinoline-4-carboxamide] |
| 2.6 | 0.88 | NCC(NC(=O)c1cccc2c(-c3cn[nH]c3)c[nH]c12)c1ccccc1 (racemic) [Example 134, N-(2-amino-1-phenylethyl)-3-(1H-pyrazol-4-yl)-1H-indole-7-carboxamide] |
| 2.8 | 0.86 | NCCC(NC(=O)c1cccc2c(-c3cn[nH]c3)c[nH]c12)c1ccccc1 (racemic) [Example 140, N-(3-amino-1-phenylpropyl)-3-(1H-pyrazol-4-yl)-1H-indole-7-carboxamide] |
| 397 | 315 | CN1CCC(C(NC(=O)c2cccc3c(-c4cn[nH]c4)c[nH]c23)C2CCCCC2)CC1 (racemic) [Example 143, N-[cyclohexyl (1-methylpiperidin-4-yl)methyl]-3-(1H-pyrazol-4-yl)-1H-indole-7-carboxamide] |
| 18 | 4.9 | NCC(NC(=O)c1cccc2c(-c3cn[nH]c3)c[nH]c12)c1ccc(CO)cc1 (racemic) [Example 146, N-(2-amino-1-(4-(hydroxymethyl)phenyl)ethyl)-3-(1H-pyrazol-4-yl)-1H-indole-7-carboxamide] |
| 0.88 | 0.4 | NCC(Cc1ccccc1)NC(=O)c1cccc2c(-c3cn[nH]c3)c[nH]c12 (racemic) [Example 147, N-(1-amino-3-phenylpropan-2-yl)-3-(1H-pyrazol-4-yl)-1H-indole-7-carboxamide] |
| 204 | 71 | CP(C)(=O)c1cccc(C(CN)NC(=O)c2cccc3c(-c4cn[nH]c4)c[nH]c23)c1 (racemic) [Example 151, (rac)-N-{2-amino-1-[3-(dimethylphosphoryl)phenyl]ethyl}-3-(1H-pyrazol-4-yl)-1H-indole-7-carboxamide] |
| 8 | 4.3 | Cc1ccc(C(=O)OCc2ccc(C(CN)C(=O)Nc3cccc4c(-c5cn[nH]c5)c[nH]c34)cc2)c(C)c1 (single isomer, unassigned) [Example 5] |
| 442 | 247 | Cc1ccc(C(=O)OCc2ccc(C(CN)C(=O)Nc3cccc4c(-c5cn[nH]c5)c[nH]c34)cc2)c(C)c1 (single isomer, unassigned) [Example 6] |
| 31 | 15 | COc1cccc(C(CN)C(=O)Nc2cccc3c(-c4cn[nH]c4)c[nH]c23)c1 (single isomer, unassigned) [Example 17, N-(3-(1H-pyrazol-4-yl)-1H-indol-7-yl)-3-amino-2-(3-methoxyphenyl)propanamide] |
| 125 | 70 | N#Cc1cccc(C(CN)C(=O)Nc2cccc3c(-c4cn[nH]c4)c[nH]c23)c1 (single isomer, unassigned) [Example 21, N-(3-(1H-pyrazol-4-yl)-1H-indol-7-yl)-3-amino-2-(3-cyanophenyl)propanamide] |
| 4 | 3 | NCC(C(=O)Nc1cccc2c(-c3cn[nH]c3)c[nH]c12)C1CCCCC1 (single isomer, unassigned) [Example 24, N-(3-(1H-pyrazol-4-yl)-1H-indol-7-yl)-3-amino-2-cyclohexylpropanamide] |
| 87 | 66 | NCC(C(=O)Nc1cccc2c(-c3cn[nH]c3)c[nH]c12)C1CCOCC1 (single isomer, unassigned) [Example 27, N-(3-(1H-pyrazol-4-yl)-1H-indol-7-yl)-3-amino-2-(tetrahydro-2H-pyran-4-yl)propanamide] |
| 59 | 23 | COc1cccc([C@@H](C(=O)Nc2cccc3c(-c4cn[nH]c4)c[nH]c23)C2CCN(C)CC2)c1 (single isomer, unassigned) [Example 29, N-(3-(1H-pyrazol-4-yl)-1H-indol-7-yl)-2-(3-methoxyphenyl)-2-(1-methylpiperidin-4-yl) acetamide] |
